Read-outs that look alike come from different tables or passages of the source.

In series [1] the target is T1, human CYP11B2 (Homo sapiens, UniProt P19099).
T1 construct: expressed in transfected cells; host or cells: murine adrenocortical cancer cell line Y1 (Y1-hsCyp11B2, stably transfected)
T1 sequence (P19099 25-503): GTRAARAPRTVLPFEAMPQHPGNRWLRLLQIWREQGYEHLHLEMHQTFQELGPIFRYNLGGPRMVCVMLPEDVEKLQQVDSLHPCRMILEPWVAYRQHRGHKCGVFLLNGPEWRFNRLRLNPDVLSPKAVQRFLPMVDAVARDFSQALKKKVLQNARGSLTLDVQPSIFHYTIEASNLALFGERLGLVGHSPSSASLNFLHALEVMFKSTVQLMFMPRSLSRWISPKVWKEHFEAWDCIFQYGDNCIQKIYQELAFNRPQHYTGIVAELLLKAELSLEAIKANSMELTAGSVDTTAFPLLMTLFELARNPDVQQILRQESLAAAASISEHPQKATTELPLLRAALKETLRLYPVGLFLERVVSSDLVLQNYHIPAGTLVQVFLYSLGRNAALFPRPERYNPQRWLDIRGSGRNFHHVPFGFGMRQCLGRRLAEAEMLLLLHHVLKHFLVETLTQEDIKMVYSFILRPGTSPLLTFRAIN
Kind of series: Inhibition of CYP11B2 in stably transfected Y1-hsCyp11B2 cells. The format is cell-based. The procedure: (§1) The human adrenocortical cell line NCI-H295 and the murine adrenocortical cancer cell line Y1 transfected with either human CYP11B1 or CYP11B2 were used for determination of IC50 values as already described.
(§2) IC50 values were calculated from all values using the program GraphPad Prism5®. All results are expressed as mean ± standard deviation.

For series [2], the target named is T2, human CYP11B1 (Homo sapiens, UniProt P15538).
T2 construct: expressed in transfected cells; host or cells: murine adrenocortical cancer cell line Y1 (Y1-hsCyp11B1, stably transfected)
T2 sequence (P15538 25-503): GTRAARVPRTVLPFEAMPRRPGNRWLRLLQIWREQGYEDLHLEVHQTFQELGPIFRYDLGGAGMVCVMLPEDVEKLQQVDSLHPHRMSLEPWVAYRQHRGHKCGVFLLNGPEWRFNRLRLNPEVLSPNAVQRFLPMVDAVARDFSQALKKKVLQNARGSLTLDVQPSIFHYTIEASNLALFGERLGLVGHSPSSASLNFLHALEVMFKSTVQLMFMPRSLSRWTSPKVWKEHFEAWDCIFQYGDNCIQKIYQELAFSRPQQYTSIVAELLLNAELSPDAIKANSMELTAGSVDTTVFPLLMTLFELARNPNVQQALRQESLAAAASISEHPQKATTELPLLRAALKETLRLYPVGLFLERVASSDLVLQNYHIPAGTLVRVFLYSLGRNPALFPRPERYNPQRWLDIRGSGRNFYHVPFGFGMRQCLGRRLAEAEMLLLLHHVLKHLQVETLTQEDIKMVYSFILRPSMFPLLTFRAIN
Briefly: Inhibition of CYP11B1 in stably transfected Y1-hsCyp11B1 cells. It is filed as cell-based. The protocol: as §1, §2

Series [3] is described as follows: Metabolic inactivation by human liver microsomes in vitro (radio-HPLC). The format is in vitro ADME. The conditions noted are these: for Metabolic stability compared with [125I]IMTO: radio-HPLC; for half-life at 0.17 MBq/ml: human, pH 7.2, 125I-labeled compound, liver microsomes 0.2 mg/ml, NADPH, 37 °C, mean ± S.D., read-out: In vitro T1/2 in human liver microsomes. The procedure: Metabolic degradation was determined by co-incubation of the tracers with human liver microsomes (Sigma, M0317). Experiments were conducted in triplicates. Incubation mixtures consisted of liver microsomes (0.2 mg/ml), the respective ^125I-labeled compound (0.1 MBq), MgCl2 (3.3 mM), and NADPH (1.3 mM) in a total volume of 0.6 ml K3PO4 puffer (25 mM, pH 7.2). The reaction was started with the addition of NADPH and incubated at 37 °C. At predefined time points, aliquots were removed, and the reaction was terminated by adding 160 µL ice-cold methanol. After centrifugation (5000 × g, 4 °C for 4 min), the supernatant was analyzed by radio-HPLC (see experimental details and Supplementary Fig. 1 in Supplement).
Background: Liver microsomes are vesicles of endoplasmic reticulum, rich in cytochrome P450 enzymes.

Series [4] in a line: Lipophilicity estimated from HPLC retention times.
Series [5] concerns NCI-H295 cells. Kind of series: Steroid secretion in NCI-H295 cells after 48-h incubation. The format is cell-based, human. The conditions noted are these: for Production of the investigated hormones: higher concentrations; for Upstream steroids 17-OH-progesterone and androstenedione: lower concentrations 0.1-10 nM. The protocol: as §1
Fig. 2 Steroid secretion in NCI-H295 cells after 48-h incubation with IMTO, IMAZA, 3-tetrahydrofurylester, and 2,2-difluoroethylester (0.1–10,000 nM). NCI-H295 cells were incubated for 48 h with the four compounds. Each experiment was performed in triplicates. At the end of the incubation period, steroid hormones (cortisol, aldosterone, 17-OH-P, and androstenedione) were determined in the cell supernatant by commercially available assays

Series [6] concerns advanced ACC. Further details: method as in PMID 15898346, PMID 29452402. The conditions noted are these: advanced ACC ref 10, 11; cited from earlier work.
The test system of series [7] is advanced ACC. Briefly: Diagnostic imaging and biokinetics with [123I]IMTO and [123I]IMAZA in patients with advanced ACC. It is filed as in vivo, human. The conditions noted are these: kinetics recalculated for 131I from 123I diagnostics in patients. The protocol:
Three patients (#1, #2, and #3) were investigated by [^123I]IMAZA (administered doses, 117, 163, and 182 MBq, respectively) and subsequently by [^123I]IMTO (176, 169, and 146 MBq, respectively). The time interval between the imaging studies was at least 5 days. Scintigraphic imaging was performed using a Siemens Symbia dual-head gamma camera equipped with medium-energy parallel-hole collimators. Activity concentration was measured in whole blood samples drawn at 2 min, 5 min, 15 min, 1 h, 2.5 h, 5 h, and 23 h after the administration. Plasma activity was analyzed in patient #1.

Series [8] concerns metastatic ACC. Briefly: Dosimetry and endoradiotherapy with [131I]IMAZA in a patient with metastatic ACC. It is filed as in vivo, human. The conditions noted are these: patient #1, derived from diagnostics with [123I]IMTO.
Series [9] relates to metastatic ACC. The series is described as above. The conditions noted are these: patient #1, derived from diagnostics with [123I]IMTO. The format is in vivo, human. The source says: Patient #1 had experienced disease progression with a more than fourfold increase in their dominant lesions within only 4 months after a phase of disease stabilization after standard treatment with mitotane and eight courses of combination chemotherapy with etoposide, doxorubicin, and cisplatin. They received therapeutic doses with 28.2 GBq [^131I]IMAZA 1 month and with 30.5 GBq [^131I]IMAZA 7 months after the evaluation with [^123I]IMAZA. Prior to the first treatment, the absorbed dose to the blood was measured with a tracer activity of 72 MBq [^131I]IMAZA as a surrogate for the exposure of the dose-limiting organ, the red bone marrow. The absorbed dose to the blood was estimated from assessments of the activity kinetics in total body and blood up to 48 h when the mean activity concentrations had dropped to 5% of the values at 5 min after the administration in the total body and to 1% in the blood. During therapy, the total body activity retention was measured with a survey meter in the ceiling over the patient’s bed. Gamma camera whole body scans accompanied by blood sampling were acquired starting 4 days post-administration after the first and 2 days after the second therapy until dismissal. SPECT/CT imaging was performed after 4 and 5 days, respectively.
Tumor evaluation was performed by [^18F]FDG PET/CT at baseline and 2, 5, 8, 11, 14, and 21 months after administration of the first treatment dose. Subsequently, the patient declined further follow-up imaging or additional therapeutic interventions.
This is another data set of the same source.

In general, IC50 refers to the concentration that gives 50% inhibition. The melting point is the temperature, or range, at which the solid turns liquid. Take `C[C@H](c1ccc(I)cc1)n1cncc1C(=O)O` [Compound 2, (R)-1-[1-(4-Iodophenyl)ethyl]-1H-imidazole-5-carboxylic acid]: the melting point was > 250 °C (dec.). Moreover, the IC50 in [1] was determined as 611 ± 1040 nM.
Consider `C[C@H](c1ccc(I)cc1)n1cncc1C(=O)OC1CCOC1` (stereo partly drawn) [Compound 3, (R)-1-[1-(4-Iodophenyl)ethyl]-1H-imidazole-5-carboxylic acid 3-tetrahydrofurylester], for which the half-inhibitory concentration (IC50) was found to be 5.3 ± 5.9 nM in [2] and 2.9 ± 1.6 nM in [1]. Besides, the “Metabolic stability compared with [125I]IMTO” value in [3] (human liver microsomes) is “nearly equal or even better metabolic stability”. In series [3], the half-life at 0.17 MBq/ml is 7.4 ± 2.8 min. For the same compound, the “Lipophilicity compared with IMTO” value in series [4] is “comparable”. Moreover, in series [5], the “Production of the investigated hormones” value is “completely stopped”. Besides, the “Upstream steroids 17-OH-progesterone and androstenedione” value in [5] is “accumulation of the upstream steroids 17-OH-progesterone and androstenedione was observed”.
Regarding `Clc1ccc(C(c2ccccc2Cl)C(Cl)Cl)cc1` (stereo not shown) [mitotane], the Response rate in series [6] is listed as at most 24%.
On to `C[C@H](c1ccc(I)cc1)n1cncc1C(=O)N1CCC1` [Compound 5, (R)-1-[1-(4-Iodophenyl)ethyl]-1H-imidazole-5-carboxylic acid azetidinylamide], for which, in [2] (stably transfected Y1-hsCyp11B1 cells, substrate deoxycortisol (1 µM), mean of at least three experiments in duplicates, read-out: IC50 CYP11B1), the IC50 is 3.2 ± 0.1 nM. In addition, the IC50 in [1] (stably transfected Y1-hsCyp11B2 cells, substrate 11-deoxycorticosterone (1 µM), mean of at least three experiments in duplicates, read-out: IC50 CYP11B2) worked out at 1.2 ± 0.1 nM. For the same compound, in series [3] (human liver microsomes), the half-life at 0.17 MBq/ml came to 26.1 ± 5.5 min. For the same compound, the “Lipophilicity compared with IMTO” value in series [4] was “lower”. In addition, in [5], the “Production of the investigated hormones” value was “completely stopped”; the “Upstream steroids 17-OH-progesterone and androstenedione” value is “accumulation of the upstream steroids 17-OH-progesterone and androstenedione was observed”.
The compound `COC(=O)c1cncn1[C@H](C)c1ccc(I)cc1` [Compound 1, (R)-1-[1-(4-Iodophenyl)ethyl]-1H-imidazole-5-carboxylic acid methyl ester] yielded a melting point of 72 to 74 °C. The half-life at 0.17 MBq/ml in series [3] (human liver microsomes) came to 7.3 ± 3.6 min.
`C[C@H](c1ccc(I)cc1)n1cncc1C(=O)OCC(F)F` [Compound 4, (R)-1-[1-(4-Iodophenyl)ethyl]-1H-imidazole-5-carboxylic acid 2,2-difluoroethylester]: the IC50 was 0.3 ± 0.4 nM in series [2] and 4.5 ± 0.5 nM in series [1]. Also, the “Metabolic stability compared with [125I]IMTO” value in [3] (human liver microsomes) was “nearly equal or even better metabolic stability”. In series [3], the half-life at 0.17 MBq/ml worked out at 7.5 ± 0.87 min. Also, the “Lipophilicity compared with IMTO” value in series [4] was “comparable”. For the same compound, the “Production of the investigated hormones” value in [5] is listed as “completely stopped”. Further, the “Upstream steroids 17-OH-progesterone and androstenedione” value in series [5] was “accumulation of the upstream steroids 17-OH-progesterone and androstenedione was observed”.
Regarding `COC(=O)c1cncn1C(C)c1ccc([131I])cc1` (stereo not shown) [[^131I]IMTO], in series [7], the “Mean blood absorbed dose” value is reported as 0.11 Gy/GBq. For the same compound, the “Residence time per liter of whole blood” value in series [8] is listed as 0.55 h. The Blood absorbed dose in [9] was determined as 0.17 Gy/GBq.

These data come from publication PMC8712301, “Novel CYP11B-ligand [^123/131I]IMAZA as promising theranostic tool for adrenocortical tumors: comprehensive preclinical characterization and first clinical experience” (European Journal of Nuclear Medicine and Molecular Imaging, 2021).
